According to article PMC7195466, “A common allosteric mechanism regulates homeostatic inactivation of auxin and gibberellin” (Nature Communications, 2020):

Assays:
[1] = molecular target: T1, OsGA2ox3 (GA 2-oxidase 3) (Oryza sativa, UniProt Q8S0S6); experiment: X-ray crystal structure, […] Å; type: binding; details: Fe(II) absent
T1 construct: gene GA2OX3; full-length coding region in pGEX6P1, GST tag cut off with PreScission protease, E. coli Rosetta (DE3) pLysS; monomer, homotetramer with GA4
T1 sequence (Q8S0S6 whole entry): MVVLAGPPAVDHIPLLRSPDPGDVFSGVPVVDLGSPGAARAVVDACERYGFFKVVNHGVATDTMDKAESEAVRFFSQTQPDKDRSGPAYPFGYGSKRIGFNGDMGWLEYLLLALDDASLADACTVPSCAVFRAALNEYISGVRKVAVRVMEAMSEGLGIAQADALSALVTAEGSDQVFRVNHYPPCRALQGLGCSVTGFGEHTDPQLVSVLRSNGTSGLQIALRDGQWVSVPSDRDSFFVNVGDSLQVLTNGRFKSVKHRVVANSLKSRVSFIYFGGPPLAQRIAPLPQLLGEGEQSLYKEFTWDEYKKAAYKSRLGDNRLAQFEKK

[2] = molecular target: T2, OsGA2ox3 (GA 2-oxidase 3) (Oryza sativa, UniProt Q8S0S6, C194A/K308A/K313A); experiment: GC-SIM-MS of GA34, activity after incubation with GA4; type: biochemical; details: 3Mu, interface-site mutant; same
T2 construct: gene GA2OX3; full-length coding region in pGEX6P1, GST tag cut off with PreScission protease, E. coli Rosetta (DE3) pLysS; monomer, homotetramer with GA4
T2 sequence (Q8S0S6 whole entry C194A/K308A/K313A): as the sequence (Q8S0S6 whole entry) above, with C194A, K308A, K313A counted along it

[3] = molecular target: T3, OsGA2ox6 (Oryza sativa, UniProt Q7XP65); experiment: gel filtration, ligand-induced dimerization; type: binding; details: 10 mM GA4 incubation, 18 h, 25 °C, pH 7.4; interface (allosteric)
T3 construct: gene GA2OX6; full-length coding region in pGEX6P1 (GST fusion); C20-type; monomer, dimer with GA4
T3 sequence (Q7XP65 1-358): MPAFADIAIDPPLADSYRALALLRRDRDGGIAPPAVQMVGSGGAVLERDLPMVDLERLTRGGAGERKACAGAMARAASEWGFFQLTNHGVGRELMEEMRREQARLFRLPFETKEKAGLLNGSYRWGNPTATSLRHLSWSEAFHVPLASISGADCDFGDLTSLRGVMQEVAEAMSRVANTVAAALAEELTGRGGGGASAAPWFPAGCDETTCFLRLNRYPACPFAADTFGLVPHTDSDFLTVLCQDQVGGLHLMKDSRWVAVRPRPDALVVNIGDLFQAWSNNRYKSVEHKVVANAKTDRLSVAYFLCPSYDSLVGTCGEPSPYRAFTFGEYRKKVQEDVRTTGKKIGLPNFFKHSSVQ

[4] = molecular target: T4, OsGA2ox3 (GA 2-oxidase 3) (Oryza sativa, UniProt Q8S0S6, K308A); experiment: GC-SIM-MS of GA34, activity after incubation with GA4; type: biochemical; details: interface-site mutant; 2-oxoglutarate, Fe(II), pH 7.9, 30 °C
T4 construct: gene GA2OX3; full-length coding region in pGEX6P1, GST tag cut off with PreScission protease, E. coli Rosetta (DE3) pLysS; monomer, homotetramer with GA4
T4 sequence (Q8S0S6 whole entry K308A): as the sequence (Q8S0S6 whole entry) above, with K308A counted along it
Method: GC-SIM-MS of GA34, activity after incubation with GA4 on OsGA2ox3 (GA 2-oxidase 3) | a single mutation, such as […] or 3Mu, led to no activation by GA4

[5] = molecular target: T5, OsDAO (dioxygenase for auxin oxidation) (Oryza sativa, UniProt Q7XKU5); experiment: X-ray crystal structure, […] Å; type: binding; details: allosteric, two IAA molecules at the dimer interface; crystallised with 2-oxoglutarate
T5 construct: gene DAO; full-length coding region in pGEX6P1, GST tag cut off with PreScission protease, E. coli Rosetta (DE3) pLysS; monomer, dimer with IAA
T5 sequence (Q7XKU5 1-300): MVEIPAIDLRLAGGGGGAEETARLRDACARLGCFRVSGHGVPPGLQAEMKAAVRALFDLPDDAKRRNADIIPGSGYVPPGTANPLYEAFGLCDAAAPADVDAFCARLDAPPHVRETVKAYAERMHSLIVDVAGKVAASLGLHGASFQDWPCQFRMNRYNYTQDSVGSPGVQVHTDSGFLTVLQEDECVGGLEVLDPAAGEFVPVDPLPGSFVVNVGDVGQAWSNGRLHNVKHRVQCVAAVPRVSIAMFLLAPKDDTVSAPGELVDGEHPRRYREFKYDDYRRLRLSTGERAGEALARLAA

O=C(O)CCC(=O)C(=O)O [2OG]
X-ray crystal structure, 2.15 Å ([1]; active site, co-substrate, GA4 present): the amino acids interacting with 2OG (R269, S271, and Y183

C=C1C[C@]23C[C@H]1CC[C@H]2[C@@]12CC[C@H](O)[C@@](C)(C(=O)O1)[C@H]2[C@@H]3C(=O)O [GA4]
GC-SIM-MS of GA34, activity after incubation with GA4 [2]: no activation of 3Mu occurred at all
gel filtration, ligand-induced dimerization [3]: The presence of GA4 induced a new peak of its dimer form
X-ray crystal structure, 2.15 Å ([1]; active site and second site (allosteric, subunit interface), 2-oxoglutarate present): We crystallized the enzyme with the co-substrates, 2OG and GA4 in the absence Fe(II)
GC-SIM-MS of GA34, activity after incubation with GA4 [4]: a single mutation, such as K308A or 3Mu, led to no activation by GA4

O=C(O)Cc1c[nH]c2ccccc12 [indole-3-acetic acid]
X-ray crystal structure, 2.0 Å [5]: We elucidated the crystal structure of OsDAO complexed with its substrate, IAA
